The source of these data is US6573276B2, “Muscarinic M1 agonist as an inhibitor of beta-amyloid (Aβ40 and Aβ42)-synthesis” (Boehringer Ingelheim Pharma KG, priority 2001, dated 2003).

The subject of assay [1] is tau protein. In words: CSF levels of tau (sandwich ELISA) before and after 4 weeks of treatment, clinical phase II trial. The format is in vivo, human. The conditions noted are these: patients. The protocol:
(§1) To test whether this effect also occurs in humans, talsaclidine or placebo were administered to 40 patients with clinical diagnosis of probable senile dementia of Alzheimer-type and measured cerebrospinal fluid (CSF) levels of Aβ40 and Aβ42 before and at the end of 4 weeks of treatment. To control for specificity, CSF levels of both total tau and phosphorylated tau were also measured.
(§2) Diagnosis of probable Alzheimer's disease was made according to the National Institute of Neurological and Communicative Disorders and Stroke-Alzheimer's Disease and Related Disorders Association (NINCDS-ADRDA) as well as ICD10 criteria. All patients were community-dwelling and were referred to the participating dementia clinics from general practitioners, neurologists, and psychiatrists. All patients gave their informed consent and were screened for participation in a clinical phase II trial in accordance with GCP and ICH guidelines. The clinical phase II trial was designed to test the safety and tolerability of talsaclidine. CSF measurements were performed within a scientific add-on protocol and additional separate informed consent to the multicenter clinical trial.
Patients were carefully examined and received a thorough clinical work-up. […]
The monoclonal antibody AT120 that reacts with both normal and HPF-tau was used in a sensitive sandwich ELISA (Innogenetics, Belgium). […] Absorbance was read at 450 nm. […]

The subject of assay [2] is Aβ42. Briefly: CSF levels of Aβ42 (sandwich ELISA) before and after 4 weeks of treatment, clinical phase II trial. Format: in vivo, human. The protocol:
as §1, §2
Patients were carefully examined and received a thorough clinical work-up. Psychometric testing included the Mini Mental State Examination (MMSE) as a global screening instrument for dementia, the Alzheimer's Disease Assessment Scale, cognitive part (ADAScog), the Clinical Global Impression (CGI) and the Behavioral Pathology in AD (BEHAVE-AD). There were 40 participants in the study with two CSF samples each. Among the inclusion criteria were age below 85 years, MMSE between 12 and 28, and the absence of relevant systemic disorders.
Talsaclidine was given, in a randomized, double-blind design, three times per day (t.i.d) in a constant dosage with increasing dose panels. Both capsules or tablets of different dose strength were applied. The specific formulations used are outlined in detail below.
The aforementioned pharmaceutical compositions were administered twice daily or three times per day to the patients. The following dosings were applied: 4.5 mg talsaclidine (n=5 patients); 9 mg (n=4); 18 mg (n=4); 36 mg (n=4); 72 mg (n=4); 96 mg (n=4); 108 mg (n=4); 120 mg (n=2); 144 mg (n=3); and placebo (n=6).
Within one week of dementia testing and before treatment, CFS was obtained by lumbar puncture according to conventional techniques. CFS samples were frozen on dry ice immediately upon withdrawal at the bedside in 0.5 ml aliquots and stored at −85° C. until biochemical analyses. A second lumbar puncture was done after four weeks of treatment and the CFS obtained was processed identically to the initial lumbar puncture. All available CFS samples were included in the analyses.
Sandwich ELISA was performed by using precoated plates (INNOTEST β-Amyloid 1-42, 8-well strips; Innogenetics, Belgium) with the capture antibody 21F12 (Innogenetics, Belgium). The capture 21F12 is specific for the free carboxyl terminus of Aβ42 (peptide sequence Aβ33-42). After washing (5×, room temperature), biotinylated antibody 6E10 at […] concentration in blocking buffer (50 mM Tris-HCl pH 7.5; 140 mM NaCl; 5 mM EDTA; 0.05% NP40; 0.25% gelatine; 1% BSA) was added. Each assay plate included a standard curve with highly purified Aβ42. After color development with TMP and Vectastain ABC detection (streptavidin-peroxidase complex, Vectastain Elite ABC Kit), absorbance was read at 450 nm. The linear range of the assay was 30 pg/ml to 5 ng/ml. There was no cross reactivity in either assay with Aβ42 or Aβ40.
Statistical analyses of data were done by Wilcoxon signed-rank tests for paired samples as well as by the Mann-Whitney U test for group comparisons. Bonferroni correction for multiple testing was performed. Analyses of covariates were used to test whether changes correlated with age, gender, or dementia severity.

For assay [3], the system named is Aβ40. Briefly: CSF levels of Aβ40 (sandwich ELISA) before and after 4 weeks of treatment, clinical phase II trial. Format: in vivo, human. The protocol: as §1
as §2, with “CSF measurements were performed within a scientific add-on protocol and additional separate informed consent to the multicenter clinical trial.” left out
Sandwich ELISA was performed with the capture antibody 6E10 (Senetek, Maryland Heights, Mo.). […] After color development with 3,5,3′,5′-tetramethylbenzidine (TMB) and hydrogen peroxide, absorbance was read at 450 nm on a microplate reader (Victor2 Multilabel, EG&G® Wallac). […]

Assay [4] deals with Aβ formation. The conditions noted are these: cell culture and brain slice models; background statement; cited from earlier work.
Setting [5] is: dosings 4.5 to 144 mg talsaclidine, four weeks.
Setting [6] is: patients treated with talsaclidine, four weeks.

Structures are written as SMILES.

In the case of `C#CCOC1CN2CCC1CC2` (stereo not drawn) [talsaclidine], the “dose dependence of change of CSF tau” value in assay [1] (n=34, dosings 4.5 to 144 mg talsaclidine, four weeks) is “decreased dose dependently”. The “CSF tau in total in comparison to placebo” value in assay [1] (n=34, four weeks of treatment) is “did not decrease in total in comparison to placebo”. Moreover, the “dose dependence of the decrease of CSF levels of Aβ42” value in assay [2] (setting [5]) is on record as “not dose dependently”. For the same compound, in assay [2] (setting [6]), the “patients in whom CSF levels of Aβ42 decreased” value is 65%, the “patients in whom CSF levels of Aβ42 did not change” value is recorded as 15% and the “patients in whom CSF levels of Aβ42 increased” value was 20%. Further, in assay [2] (patients with probable Alzheimer's disease, talsaclidine group n=34, starting value ('decreased from'), value after four weeks not given), the “mean CSF levels of Aβ42 (mean±SD)” value is 0.126 ± 0.073 ng/mL. For the same compound, in assay [2] (patients, four weeks of treatment, n=34, significant), the “decrease of CSF levels of Aβ42 over time within the treatment group, median” value amounted to 17%. The “decrease of CSF levels of Aβ42 compared to placebo, median” value in assay [2] (patients, four weeks of treatment, talsaclidine n=34 vs placebo n=6, significant) is on record as 23%. In assay [3] (setting [5]), the “dose dependence of change of CSF levels of Aβ40” value is recorded as “decreased dose dependently”. In assay [3] (patients, four weeks of treatment), the “CSF levels of Aβ40 in total in comparison to placebo” value is reported as “did not increase in total in comparison to placebo”. Moreover, in assay [4], the Aβ formation result is “lowers Aβ formation”.
